Reference: patent US20060111305A1, “Metabolites of certain [1,4]diazepino[6,7,1-ij]quinoline derivatives and methods of preparation and use thereof” (Wyeth, priority 2004, published 2006)
Like-named read-outs stand apart in the source and are kept apart here.

Assays:
[1] = Rat brain radioactivity content and metabolite profiles after single oral 5 mg/kg [14C]DCDQ; format: in vivo, Sprague-Dawley rats
Procedure: At sacrifice, blood samples were collected by cardiac puncture into tubes containing EDTA as the anticoagulant and placing them on ice. Aliquots of 50 μL were removed for combustion and determination of radioactivity content. Plasma was immediately obtained from the remaining blood by centrifugation at 4° C. Brains were excised after perfusion with 50 mL of chilled sterile saline. Urine samples were collected on dry ice at intervals of 0-8 and 8-24 hour post-dosing. Feces were collected at intervals of 0-8 and 8-24 hr post-dosing at room temperature and were homogenized as described previously. The biological specimens and aliquots of the dosing solution at pre- and post-dose were stored at approximately −70° C. until analyzed.
Brain and fecal samples were weighed and homogenized in water at volume-to-weight ratios of about 1:1 and 5:1, respectively. Blood aliquots (50 μL), brain homogenates (0.1 gram) and fecal homogenates (0.2 gram) were placed on Combusto-cones with Combusto-pads and combusted. A model 307 Tri-Carb Sample Oxidizer, equipped with an Oximate-80 Robotic Automatic Sampler (Perkin Elmer), was used for combustion. The liberated ^14CO2 was trapped with Carbo-Sorb E carbon dioxide absorber, mixed with PermaFluor® E+ liquid scintillation cocktail, and counted in a Tri-Carb Model 3100 TR/LL liquid scintillation counter (Perkin Elmer). The oxidation efficiency of the oxidizer was 98.2%.
Brain homogenates were analyzed for metabolite profiles. Aliquots of 1 gram of brain homogenates were mixed with an equal volume of methanol, placed on ice for about 10 minutes and centrifuged. The supernatant was transferred to a clean tube. The residue was extracted three times with 1 mL methanol. The supernatants of each sample were combined, evaporated to about 0.5 mL, and centrifuged. Extraction efficiency was determined by analyzing aliquots of 10 μL of the supernatant for radioactivity. An aliquot (100-200 μL) of the supernatant was analyzed by HPLC with radioactivity flow detection for profiling. Samples were also analyzed by LC/MS to characterize the radioactive peaks.
A Waters model 2690 HPLC system (Waters Corp., Milford, Mass.) with a built-in autosampler was used for analysis. Separations were accomplished on a Phenomenex Luna C18(2) column (150×2.0 mm, 5 μm) (Phenomenex, Torrance, Calif.). The sample chamber of the autosampler was maintained at 4° C., while the column was at ambient temperature of about 20° C. A variable wavelength UV detector set to monitor 250 nm and a Flo-One β Model A525 radioactivity detector described above were used for data acquisition. The HPLC mobile phase consisted of 10 mM ammonium acetate, pH 4.5 (A) and methanol (B), and was delivered at 0.2 mL/min. Chromatographic condition A was used for dose analysis, while condition B was used for analysis of urine and plasma, brain and fecal extracts.

[2] = test system: cryopreserved human hepatocytes; test: Incubation of [14C]DCDQ with cryopreserved human hepatocytes; format: in vitro ADME; details: 4 hours
Procedure: Vials containing cryopreserved human hepatocytes were thawed in a 37° C. water bath with gentle shaking until the ice was almost melted. The vials were removed from the water bath and gentle shaking continued at room temperature for 30-60 seconds until completely thawed. The hepatocyte suspensions from each vial were immediately transferred to pre-cooled 50 mL beakers on ice. To each beaker, 12 mL of ice-cold hepatocyte suspension media was added dropwise over one minute, with occasional, gentle shaking by hand to prevent the cells from settling. The cell suspensions were transferred to a 15 mL tube and centrifuged at 100 g force for 3 min at 4° C. (Model T21 super centrifuge, Sorvall). The supernatant was discarded and the pellets were re-suspended in 4 mL of ice-cold hepatocyte culture media. The cell suspensions contained approximately 3.1×10^6 viable hepatocytes/mL. The average viability was 76.0% as determined using Trypan Blue exclusion and a hemacytometer.
The cell suspensions were distributed into 12-well plates at 1.0 mL per well. Incubations were performed using pooled hepatocytes from two donors. [^14C]DCDQ in water was added to the hepatocyte suspension at a final concentration of 10 or 50 μM. Incubations were carried out at 37° C. for 4 hours in an incubator supplied with 5% CO2. At the end of the incubation, the reaction was stopped by the addition of 200 μL cold methanol to each well. The content of each well was transferred to a 15 mL centrifuge tube and sonicated for 30 seconds. After vortex mixing with 6 mL methanol and then centrifugation, the supernatant was transferred to a clean tube and evaporated to about 0.5 mL in a TurboVap evaporator. The residue was analyzed by HPLC and LC/MS.
A Waters model 2690 HPLC system (Waters Corp., Milford, Mass.) with a built-in autosampler was used for analysis. […] A variable wavelength UV detector set to monitor 250 nm and Flo-One β Model A525 radioactivity flow detector (Perkin Elmer) with a 250 μL LQTR flow cell were used for data acquisition. […]

c1cc2c3c(c1)[C@H]1CCC[C@H]1CN3CCNC2 [DCDQ, (9aR,12aS)-4,5,6,7,9,9a,10,11,12,12a-decahydro-cyclopenta[c][1,4]diazepine[6,7,1-ij]quinoline, reference compound]
Kp at 2 h ([1]; Sprague-Dawley, rat, brain and plasma, oral, 5 mg/kg, male rats, 2 hr, read-out: Brain/Plasma Ratio, DCDQ): 56.4 ± 11.5
Kp at 4 h ([1]; Sprague-Dawley, rat, brain and plasma, oral, 5 mg/kg, male rats, 4 hr, read-out: Brain/Plasma Ratio, DCDQ): 50.5 ± 8.88
concentration at 2 h ([1]; Sprague-Dawley, rat, brain, oral, 5 mg/kg, female rats, 2 hr, mean ± S.D., N = 3, read-out: Brain concentration, DCDQ (estimated)): 6080 ± 2170 ng/g
concentration at 8 h ([1]; Sprague-Dawley, rat, brain, oral, 5 mg/kg, female rats, 8 hr, mean ± S.D., N = 3, read-out: Brain concentration, DCDQ (estimated)): 2680 ± 660 ng/g
concentration at 2 h ([1]; Sprague-Dawley, rat, brain, oral, 5 mg/kg, male rats, 2 hr, mean ± S.D., N = 3, read-out: Brain concentration, DCDQ (estimated)): 4630 ± 1180 ng/g
concentration at 4 h ([1]; Sprague-Dawley, rat, brain, oral, 5 mg/kg, male rats, 4 hr, mean ± S.D., N = 3, read-out: Brain concentration, DCDQ (estimated)): 4470 ± 420 ng/g
concentration at 8 h ([1]; Sprague-Dawley, rat, brain, oral, 5 mg/kg, male rats, 8 hr, mean ± S.D., N = 3, read-out: Brain concentration, DCDQ (estimated)): 2930 ± 930 ng/g
Kp at 2 h ([1]; Sprague-Dawley, rat, brain/plasma, oral, 5 mg/kg, female rats, 2 hr, read-out: Brain/Plasma Ratio, DCDQ): 49.9 ± 14.3
Kp at 8 h ([1]; Sprague-Dawley, rat, brain/plasma, oral, 5 mg/kg, female rats, 8 hr, read-out: Brain/Plasma Ratio, DCDQ): 56.1 ± 17.8
Kp at 8 h ([1]; Sprague-Dawley, rat, brain/plasma, oral, 5 mg/kg, male rats, 8 hr, read-out: Brain/Plasma Ratio, DCDQ): 50.5 ± 11.4
Kp ([1]; both sexes, Sprague-Dawley, rat, brain, oral, 5 mg/kg, independent of time or sex, 2 to 8 hour post-dose, read-out: average brain-to-plasma DCDQ ratio): 49.9 to 56.1
% DCDQ of Brain Radioactivity ([1]; female rats, 2 hr): 95.2 ± 1.0%
% DCDQ of Brain Radioactivity ([1]; female rats, 8 hr): 94.1 ± 0.7%
% DCDQ of Brain Radioactivity ([1]; male rats, 2 hr): 90.4 ± 0.9%
% DCDQ of Brain Radioactivity ([1]; male rats, 4 hr): 90.4 ± 0.5%
% DCDQ of Brain Radioactivity ([1]; male rats, 8 hr): 90.0 ± 1.2%

O=C(O)[C@H]1O[C@@H](OC(=O)N2CCN3C[C@@H]4CCC[C@@H]4c4cccc(c43)C2)[C@H](O)[C@@H](O)[C@@H]1O [Metabolite M6, carbamoyl glucuronide of DCDQ]
relative abundance of metabolite in human hepatocytes ([2]; 50 μM DCDQ): most prominent metabolite

O=C1CC[C@@H]2c3cccc4c3N(CCNC4)C[C@H]12 [Metabolite M7, 17-keto DCDQ]
metabolite detected in human hepatocyte incubations ([2]; 10 or 50 μM DCDQ): detected

c1cc2c3c(c1)[C@H]1CCC[C@H]1CN3CCNC2 [[^14C]DCDQ]
Brain concentration of radioactivity, Total ([1]; female rats, 2 hr, mean ± S.D., N = 3): 6.38 ± 2.22 μg equivalents/g
Brain concentration of radioactivity, Total ([1]; female rats, 8 hr, mean ± S.D., N = 3): 2.85 ± 0.68 μg equivalents/g
Brain concentration of radioactivity, Total ([1]; male rats, 2 hr, mean ± S.D., N = 3): 5.12 ± 1.28 μg equivalents/g
Brain concentration of radioactivity, Total ([1]; male rats, 4 hr, mean ± S.D., N = 3): 4.94 ± 0.44 μg equivalents/g
Brain concentration of radioactivity, Total ([1]; male rats, 8 hr, mean ± S.D., N = 3): 3.25 ± 0.99 μg equivalents/g
Brain radioactivity concentration ([1]; male rats, 24 hour post-dose): 0.037 ± 0.002 µg equivalents/g tissue
Brain concentration of radioactivity, Total ([1]; male rats, 24 hr, mean ± S.D., N = 3): 0.04 ± 0.00 μg equivalents/g
